Patent US6599932B1, “Alpha, beta-unsaturated sulfones for treating proliferative disorders” (Temple University-Of The Commonwealth System of Higher …, priority 2000, dated 2003)

Experiments:
Assay type in all cases: cell-based
Design in all cases: dose or concentration left out as unconfirmed
[1] = system: non-small cell lung carcinoma cell line H157; assay: Viability assay, Trypan blue exclusion, non-small cell lung carcinoma cell line H157; conditions: for percent cell death (% Death), H157: 96 hours; for cytotoxicity: Homo sapiens, NCI-H157, 96 hours, read-out: percent cell death (% Death), H157
Description: (§1) The effect of the sulfones on normal fibroblasts and on tumor cells of prostate, colon, lung and breast origin was examined utilizing the following cell lines: prostate tumor cell line DU-145; colorectal carcinoma cell line DLD-1; non-small cell lung carcinoma cell line H157; and breast tumor cell line BT-20. BT-20 is an estrogen-unresponsive cell line. NIH/3T3 and HFL are normal murine and human fibroblasts, respectively. BT-20, DLD-1 and H157 were grown in Dulbecco's modified Eagle's medium (DMEM) containing 10% fetal bovine serum supplemented with penicillin and streptomycin. DU145 was cultured in RPMI with 10% fetal bovine serum containing penicillin and streptomycin. NIH3T3 and HFL cells were grown in DMEM containing 10% calf serum supplemented with penicillin and streptomycin. All cell cultures were maintained at 37° C. in a humidified atmosphere of 5% CO2.
(§2) Cells were treated with test compound […] concentration and cell viability was determined after 96 hours by the Trypan blue exclusion method. Activity for each compound is reported as a range of cell induced death (% Death) with the lowest activity in the range of 5-10%.

[2] = system: colorectal carcinoma cell line DLD-1; assay: Viability assay, Trypan blue exclusion, colorectal carcinoma cell line DLD-1; conditions: for percent cell death (% Death), DLD-1: 96 hours; for cytotoxicity: Homo sapiens, DLD-1, 96 hours, read-out: percent cell death (% Death), DLD-1
Description: as §1, §2

[3] = system: prostate tumor cell line DU-145; assay: Viability assay, Trypan blue exclusion, prostate tumor cell line DU-145; conditions: for percent cell death (% Death), DU145: 96 hours; for cytotoxicity: Homo sapiens, DU-145, 96 hours, read-out: percent cell death (% Death), DU145
Description: as §1, §2

[4] = system: breast tumor cell line BT-20; assay: Viability assay, Trypan blue exclusion, breast tumor cell line BT-20; conditions: for percent cell death (% Death), BT20: 96 hours; for cytotoxicity: Homo sapiens, BT-20, 96 hours, read-out: percent cell death (% Death), BT20
Description: as §1, §2

Compound | percent cell death (% Death), H157 [1] | percent cell death (% Death), DLD-1 [2] | percent cell death (% Death), DU145 [3] | percent cell death (% Death), BT20 [4] | cytotoxicity [1] [%] | cytotoxicity [2] [%] | cytotoxicity [3] [%] | cytotoxicity [4] [%]
COc1ccc(CS(=O)(=O)/C=C/C2=CS(=O)(=O)C=C2)cc1 [Example 36, (E)-3-Thiophene-1,1-dioxoethenyl-4-methoxybenzylsulfone] | + ((+)=5-10%) | + ((+)=5-10%) | + ((+)=5-10%) | + ((+)=5-10%) |  |  |  | 
O=S1(=O)C=CC(/C=C/S(=O)(=O)Cc2ccc(Cl)cc2Cl)=C1 [Example 37, (E)-3-Thiophene-1,1-dioxoethenyl-2,4-dichlorobenzylsulfone] | ++ ((++)=10-15%) | ++ ((++)=10-15%) | ++ ((++)=10-15%) | ++ ((++)=10-15%) |  |  |  | 
O=S(=O)(/C=C/c1ccoc1)Cc1ccc(F)cc1 [Example 41, (E)-3-Furanethenyl-4-fluorobenzylsulfone] |  |  |  |  | 5 to 10 | 5 to 10 | 5 to 10 | 5 to 10
O=S(=O)(/C=C/c1ccoc1)Cc1ccc(Cl)cc1 [Example 42, (E)-3-Furanethenyl-4-chlorobenzylsulfone] |  |  |  |  | > 80 | > 80 | > 80 | > 80
O=S(=O)(/C=C/c1ccoc1)Cc1ccc(Br)cc1 [Example 43, (E)-3-Furanethenyl-4-bromobenzylsulfone] |  |  |  |  | > 80 | > 80 | > 80 | > 80
O=S(=O)(/C=C/c1ccoc1)Cc1ccc(I)cc1 [Example 44, (E)-3-Furanethenyl-4-iodobenzylsulfone] |  |  |  |  | > 80 | > 80 | > 80 | > 80
COc1ccc(CS(=O)(=O)/C=C/c2ccoc2)cc1 [Example 46, (E)-3-Furanethenyl-4-methoxybenzylsulfone] |  |  |  |  | > 80 | > 80 | > 80 | > 80
O=S(=O)(/C=C/c1ccoc1)Cc1ccc(C(F)(F)F)cc1 [Example 47, (E)-3-Furanethenyl-4-trifluoromethylbenzylsulfone] | ++++ ((++++)=50-60%) | ++++ ((++++)=50-60%) | ++++ ((++++)=50-60%) | ++++ ((++++)=50-60%) |  |  |  | 
O=S(=O)(/C=C/c1ccoc1)Cc1ccc(Cl)cc1Cl [Example 48, (E)-3-Furanethenyl-2,4-dichlorobenzylsulfone] |  |  |  |  | > 80 | > 80 | > 80 | > 80
O=S(=O)(/C=C/c1ccoc1)Cc1ccc(Cl)c(Cl)c1 [Example 49, (E)-3-Furanethenyl-3,4-dichlorobenzylsulfone] |  |  |  |  | 50 to 60 | 50 to 60 | > 80 | 50 to 60
N#Cc1ccc(CS(=O)(=O)/C=C/c2ccoc2)cc1 [Example 50, (E)-3-Furanethenyl-4-cyanobenzylsulfone] |  |  |  |  | 5 to 10 | 5 to 10 | 5 to 10 | 5 to 10
O=[N+]([O-])c1ccc(CS(=O)(=O)/C=C/c2ccoc2)cc1 [Example 51, (E)-3-Furanethenyl-4-nitrobenzylsulfone] |  |  |  |  | 5 to 10 | 5 to 10 | 5 to 10 | 5 to 10
O=[N+]([O-])c1cc(/C=C/S(=O)(=O)Cc2ccc(Cl)cc2)cs1 [Example 55, (E)-2-Nitro-4-thiopheneethenyl-4-chlorobenzylsulfone] |  |  |  |  | 5 to 10 | 50 to 60 | 10 to 15 | 5 to 10
O=[N+]([O-])c1cc(/C=C/S(=O)(=O)Cc2ccc(I)cc2)cs1 [Example 56, (E)-2-Nitro-4-thiopheneethenyl-4-iodobenzylsulfone] |  |  |  |  | 5 to 10 | 5 to 10 | 5 to 10 | 5 to 10
